{"source": "ChEMBL document CHEMBL5257089", "about": "“Gamabufotalin Induces Apoptosis and Cytoprotective Autophagy through the mTOR Signaling Pathway in Hepatocellular Carcinoma” (J Nat Prod, 2023)", "assay_type_in_all_cases": "functional", "key": {"[1]": {"system": "Huh-7", "test": "Induction of apoptosis in human Huh-7 cells assessed as viable cells at 10 nM measured after 48 hrs by annexin V-FITC/Propidium iodide staining based flow cytometric analysis (reference value: 91.7%)", "details": "read-out: Activity"}, "[2]": {"system": "Hep 3B2", "test": "Induction of apoptosis in human Hep3B cells assessed as early apoptotic cells at 10 nM measured after 48 hrs by annexin V-FITC/Propidium iodide staining based flow cytometric analysis (reference value: 1.6%)"}, "[3]": {"system": "Hep 3B2", "test": "Induction of apoptosis in human Hep3B cells assessed as viable cells at 10 nM measured after 48 hrs by annexin V-FITC/Propidium iodide staining based flow cytometric analysis (reference value: 95.6%)", "details": "read-out: Activity"}, "[4]": {"system": "Hep 3B2", "test": "Induction of apoptosis in human Hep3B cells assessed as late apoptotic cells at 10 nM measured after 48 hrs in presence of gamabufotalin by annexin V-FITC/Propidium iodide staining based flow cytometric analysis (reference value: 2.4%)"}, "[5]": {"system": "Hep 3B2", "test": "Induction of apoptosis in human Hep3B cells assessed as necrotic cells at 10 nM measured after 48 hrs by annexin V-FITC/Propidium iodide staining based flow cytometric analysis (reference value: 0.3%)"}, "[6]": {"system": "Huh-7", "test": "Induction of apoptosis in human Huh-7 cells assessed as late apoptotic cells at 10 nM measured after 48 hrs by annexin V-FITC/Propidium iodide staining based flow cytometric analysis (reference value: 6.1%)"}, "[7]": {"system": "Huh-7", "test": "Induction of apoptosis in human Huh-7 cells assessed as early apoptotic cells at 10 nM measured after 48 hrs by annexin V-FITC/Propidium iodide staining based flow cytometric analysis (reference value: 2.2%)"}, "[8]": {"system": "Hep 3B2", "test": "Induction of apoptosis in human Hep3B cells assessed as late apoptotic cells at 10 nM measured after 48 hrs by annexin V-FITC/Propidium iodide staining based flow cytometric analysis (reference value: 2.4%)"}, "[9]": {"system": "Huh-7", "test": "Induction of apoptosis in human Huh-7 cells assessed as early apoptotic cells at 10 nM measured after 48 hrs in presence of gamabufotalin by annexin V-FITC/Propidium iodide staining based flow cytometric analysis (Rvb =2.2%)"}, "[10]": {"system": "Huh-7", "test": "Induction of apoptosis in human Huh-7 cells assessed as late apoptotic cells at 10 nM measured after 48 hrs in presence of gamabufotalin by annexin V-FITC/Propidium iodide staining based flow cytometric analysis (reference value: 6.1%)"}, "[11]": {"system": "Hep 3B2", "test": "Induction of apoptosis in human Hep3B cells assessed as necrotic cells at 10 nM measured after 48 hrs in presence of gamabufotalin by annexin V-FITC/Propidium iodide staining based flow cytometric analysis (reference value: 0.3%)"}, "[12]": {"system": "Huh-7", "test": "Induction of apoptosis in human Huh-7 cells assessed as viable cells at 10 nM measured after 48 hrs in presence of gamabufotalin by annexin V-FITC/Propidium iodide staining based flow cytometric analysis (reference value: 91.7%)", "details": "read-out: Activity"}, "[13]": {"system": "Huh-7", "test": "Induction of apoptosis in human Huh-7 cells assessed as necrotic cells at 10 nM measured after 48 hrs in presence of gamabufotalin by annexin V-FITC/Propidium iodide staining based flow cytometric analysis (reference value: 0.0%)"}, "[14]": {"system": "Hep 3B2", "test": "Induction of apoptosis in human Hep3B cells assessed as early apoptotic cells at 10 nM measured after 48 hrs in presence of gamabufotalin by annexin V-FITC/Propidium iodide staining based flow cytometric analysis (reference value: 1.6%)"}, "[15]": {"system": "Hep 3B2", "test": "Induction of apoptosis in human Hep3B cells assessed as viable cells at 10 nM measured after 48 hrs in presence of gamabufotalin by annexin V-FITC/Propidium iodide staining based flow cytometric analysis (reference value: 95.6%)", "details": "read-out: Activity"}, "[16]": {"system": "Huh-7", "test": "Induction of apoptosis in human Huh-7 cells assessed as necrotic cells at 10 nM measured after 48 hrs by annexin V-FITC/Propidium iodide staining based flow cytometric analysis (reference value: 0.0%)"}}, "note": "Residues, ends and D or L forms follow the SMILES beside them. *: point of attachment. Cbz = O=C(OCc1ccccc1)*; CH2F = FC*", "data": [{"compound": "CC(C)[C@H](NC(=O)OCc1ccccc1)C(=O)N[C@@H](C)C(=O)N[C@@H](CC(=O)O)C(=O)CF", "note": "(Cbz-Val-Ala-Asp-CH2F)", "values": [{"measurement": "viability at 0.01 µM", "setting": "[1]", "result": 90.3, "unit": "%"}, {"measurement": "Activity", "setting": "[2]", "result": 2.6, "unit": "%"}, {"measurement": "viability at 0.01 µM", "setting": "[3]", "result": 93.5, "unit": "%"}, {"measurement": "Activity", "setting": "[4]", "result": 3.5, "unit": "%"}, {"measurement": "Activity", "setting": "[5]", "result": 0.3, "unit": "%"}, {"measurement": "Activity", "setting": "[6]", "result": 6.9, "unit": "%"}, {"measurement": "Activity", "setting": "[7]", "result": 2.7, "unit": "%"}, {"measurement": "Activity", "setting": "[8]", "result": 3.6, "unit": "%"}, {"measurement": "Activity", "setting": "[9]", "result": 3.3, "unit": "%"}, {"measurement": "Activity", "setting": "[10]", "result": 7.4, "unit": "%"}, {"measurement": "Activity", "setting": "[11]", "result": 0.3, "unit": "%"}, {"measurement": "viability at 0.01 µM", "setting": "[12]", "result": 89, "unit": "%"}, {"measurement": "Activity", "setting": "[13]", "result": 0.3, "unit": "%"}, {"measurement": "Activity", "setting": "[14]", "result": 4.4, "unit": "%"}, {"measurement": "viability at 0.01 µM", "setting": "[15]", "result": 91.9, "unit": "%"}, {"measurement": "Activity", "setting": "[16]", "result": 0.1, "unit": "%"}]}]}
